The target in this test is Histamine H1 receptor (Homo sapiens) (UniProt P35367). The experiment in a line: Antagonist activity at H1R in human HeLa cells assessed as inhibition of histamine-induced intracellular calcium mobilization at 10 times Ki incubated for 18 to 20 hrs prior to Fluo-4NW dye addition for 1 hr followed by compound washout and subsequent stimulation with histamine at 5 mins interval and measured up to 2 hrs by fluorescence assay. In kind it is functional, cell-based.

Activity calls are given as the source filed them. The calls are words filed in the database; no cut-off is given here.

Sequence of Histamine H1 receptor (Homo sapiens) (P35367 whole entry): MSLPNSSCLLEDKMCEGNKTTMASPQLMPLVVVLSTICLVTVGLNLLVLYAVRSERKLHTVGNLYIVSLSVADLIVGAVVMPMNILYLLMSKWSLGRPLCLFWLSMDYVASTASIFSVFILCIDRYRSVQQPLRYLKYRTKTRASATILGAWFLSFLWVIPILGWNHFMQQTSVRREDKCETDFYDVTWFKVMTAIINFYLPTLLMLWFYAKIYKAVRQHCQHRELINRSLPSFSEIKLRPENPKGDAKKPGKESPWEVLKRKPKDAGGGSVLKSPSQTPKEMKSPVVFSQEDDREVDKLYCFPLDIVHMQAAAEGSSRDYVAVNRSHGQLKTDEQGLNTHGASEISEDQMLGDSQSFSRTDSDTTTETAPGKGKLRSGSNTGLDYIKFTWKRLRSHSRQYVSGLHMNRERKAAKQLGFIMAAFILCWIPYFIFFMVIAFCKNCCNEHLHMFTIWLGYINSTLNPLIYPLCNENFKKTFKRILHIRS

For `Cc1cncc(CN2CCC(=C3c4ccc(Cl)cc4CCc4cccnc43)CC2)c1`, the inhibition entry is “Active”.

On to `Clc1ccc2c(c1)CCc1cccnc1C2=C1CCN(CC2CCCC2)CC1`, for which the inhibition is 100%.

In the case of `Clc1ccc2c(c1)CCc1cccnc1C2=C1CCN(CC2CC2)CC1`, the inhibition amounted to 100%.

Regarding `Clc1ccc2c(c1)CCc1cccnc1C2=C1CCN(CC2CCC2)CC1`, the inhibition was found to be 100%.

A word on the inhibition: it is how much of the control response was suppressed.

The values are drawn from ChEMBL document CHEMBL4364298.
